Experiments:
[1] = biological target: JAK3 (Homo sapiens (Human), UniProt P52333); assay: Biochemical JAK and Tyk2 Kinase Assays (LanthaScreen), JAK3; conditions: 1.6 μM ATP (Km); pIC50 converted to pKi by Cheng-Prusoff
[2] = Human Liver Microsome Assay; conditions: human liver microsomes 0.1 mg/mL, 0.1 μM compound, 1 mM NADPH, 37° C.
Protocol: Assay 4: Human Liver Microsome Assay
The objective of this assay was to assess the metabolic stability of test compounds in an in vitro human liver sub-fraction. Human liver microsomes obtained from Bioreclamation-IVT (Baltimore, Md.) were thawed on ice and diluted into 0.1 M potassium phosphate buffer pH 7.4 to yield final incubation protein concentrations of 0.1 mg/mL. Test compounds (10 mM) were diluted into NADPH cofactor to yield final incubation concentrations of 0.1 μM test compound and 1 mM NADPH. Incubations were conducted at 37° C. temperature and test aliquots were taken at time points 0, 5, 8, 15, 30 and 45 minutes. Each aliquot was crashed into water with 3% formic acid and 1 μM internal standard. The resulting samples were injected onto an LC-MS/MS system for analysis.
For each incubation, the peak area of the analytes in each t0 aliquot was set to 100% and the peak areas from subsequent time point aliquots were converted to percentage of parent compound remaining relative to t0. The percentage of parent compound remaining was converted to natural log scale and plotted versus time in minutes. A linear regression analysis was performed for the initial decline of the parent disappearance profile and a formula for the best-fit line determined. The slope of the resultant line was normalized to protein concentration in mg/mL protein or number of cells/mL and CLint was calculated as follows for liver microsomes: CLint(μL·min^−1·mg^−1)=(Slope×1000)/[protein,mg/mL]
CLint values from 9-49 μl/min/mg represent moderate clearance (i.e. 30-70% of hepatic blood flow in human) and values >50 μl/min/mg represent high hepatic clearance (i.e. >70% of hepatic blood flow in human).

[3] = biological target: Tyk2 (Homo sapiens (Human), UniProt P29597); assay: Biochemical JAK and Tyk2 Kinase Assays (LanthaScreen), Tyk2; conditions: 10 μM ATP (Km); pIC50 converted to pKi by Cheng-Prusoff
Sequence of Tyk2 (P29597 whole entry): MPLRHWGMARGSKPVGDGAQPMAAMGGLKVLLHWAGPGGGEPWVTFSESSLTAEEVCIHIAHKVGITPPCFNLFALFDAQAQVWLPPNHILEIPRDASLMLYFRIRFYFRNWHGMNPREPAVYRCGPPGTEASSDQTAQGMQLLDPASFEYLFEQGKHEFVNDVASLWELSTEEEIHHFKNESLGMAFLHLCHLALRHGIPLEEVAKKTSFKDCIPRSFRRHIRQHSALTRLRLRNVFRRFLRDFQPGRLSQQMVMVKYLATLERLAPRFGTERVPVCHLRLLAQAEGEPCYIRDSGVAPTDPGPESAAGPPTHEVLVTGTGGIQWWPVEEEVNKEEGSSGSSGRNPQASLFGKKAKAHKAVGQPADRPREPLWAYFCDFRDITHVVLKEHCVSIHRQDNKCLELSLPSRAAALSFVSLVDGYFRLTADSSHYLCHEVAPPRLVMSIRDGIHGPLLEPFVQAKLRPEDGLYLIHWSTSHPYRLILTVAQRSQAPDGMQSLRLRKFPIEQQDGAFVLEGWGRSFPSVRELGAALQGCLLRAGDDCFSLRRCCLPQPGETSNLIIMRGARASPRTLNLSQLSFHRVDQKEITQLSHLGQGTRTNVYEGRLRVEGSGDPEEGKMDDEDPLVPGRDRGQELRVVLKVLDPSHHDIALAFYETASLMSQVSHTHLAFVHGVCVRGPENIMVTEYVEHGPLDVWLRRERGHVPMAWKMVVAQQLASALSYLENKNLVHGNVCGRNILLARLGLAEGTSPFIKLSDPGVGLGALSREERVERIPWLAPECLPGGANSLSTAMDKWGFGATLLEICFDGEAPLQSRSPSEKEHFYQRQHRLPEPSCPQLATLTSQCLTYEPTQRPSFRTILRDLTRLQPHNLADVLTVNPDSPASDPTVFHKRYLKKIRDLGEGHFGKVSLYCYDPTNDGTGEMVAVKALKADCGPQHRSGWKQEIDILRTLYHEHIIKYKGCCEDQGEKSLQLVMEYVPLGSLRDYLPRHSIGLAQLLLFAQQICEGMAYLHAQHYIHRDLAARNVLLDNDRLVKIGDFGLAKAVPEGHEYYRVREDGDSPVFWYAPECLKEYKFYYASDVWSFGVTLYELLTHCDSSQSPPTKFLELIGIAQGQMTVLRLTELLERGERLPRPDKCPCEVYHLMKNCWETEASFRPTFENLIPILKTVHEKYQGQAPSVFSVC
Protocol: (§1) Assay 1: Biochemical JAK and Tyk2 Kinase Assays
(§2) A panel of four LanthaScreen JAK biochemical assays (JAK1, 2, 3 and Tyk2) were carried in a common kinase reaction buffer (50 mM HEPES, pH 7.5, 0.01% Brij-35, 10 mM MgCl2, and 1 mM EGTA). Recombinant GST-tagged JAK enzymes and a GFP-tagged STAT1 peptide substrate were obtained from Life Technologies.
(§3) Serially or discretely diluted compounds were pre-incubated with each of the four JAK enzymes and the substrate in white 384-well microplates (Corning) at ambient temperature for 1 h. ATP was subsequently added to initiate the kinase reactions in 10 μL total volume, with 1% DMSO. The final enzyme concentrations for JAK1, 2, 3 and Tyk2 are 4.2 nM, 0.1 nM, 1 nM, and 0.25 nM respectively; the corresponding Km ATP concentrations used are 25 μM, 3 μM, 1.6 μM, and 10 μM; while the substrate concentration is 200 nM for all four assays. Kinase reactions were allowed to proceed for 1 hour at ambient temperature before a 10 μL preparation of EDTA (10 mM final concentration) and Tb-anti-pSTAT1 (pTyr701) antibody (Life Technologies, 2 nM final concentration) in TR-FRET dilution buffer (Life Technologies) was added. The plates were allowed to incubate at ambient temperature for 1 h before being read on the EnVision reader (Perkin Elmer). Emission ratio signals (520 nm/495 nm) were recorded and utilized to calculate the percent inhibition values based on DMSO and background controls.
(§4) For dose-response analysis, percent inhibition data were plotted vs. compound concentrations, and IC50 values were determined from a 4-parameter robust fit model with the Prism software (GraphPad Software). Results were expressed as pIC50 (negative logarithm of IC50) and subsequently converted to pKi (negative logarithm of dissociation constant, Ki) using the Cheng-Prusoff equation.

[4] = test system: Caco-2 cell monolayer; assay: Caco-2 Permeation Assay; assay type: in vitro ADME; conditions: Papp, 5 μM compound; for Cacoverap Kp 10^−6 cm/sec: A→B in the presence of 25 μM verapamil (P-gp inhibitor); for Caco Kp 10^−6 cm/sec: apical to basal (A→B)
Method in brief: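 Compound at 5 μM, in duplicate, crosses Caco-2 monolayers apical to basal over 120 min at 37 °C. This is run with and without 25 μM verapamil to test for P-gp efflux. Samples are quantified by LC-MS/MS, and Papp in cm/sec is calculated as dQ/(dt × area × concentration).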

[5] = test system: IL-2 stimulated pSTAT5 in Tall-1 T cells; assay: Inhibition of IL-2 Stimulated pSTAT5 in Tall-1 T Cells; assay type: cell-based; conditions: Tall-1 human T cell line, IL-2 300 ng/mL, AlphaLisa
Method in brief: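 Cells preincubated with compound 1 hour at 37° C, then stimulated with IL-2 (final 300 ng/mL) for 30 minutes. After lysis, pSTAT5 (Tyr694/699) read by AlphaLISA luminescence. IC50 from inhibition curves, reported as pIC50 (mean±SD).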

[6] = biological target: JAK1 (Homo sapiens (Human), UniProt P23458); assay: Biochemical JAK and Tyk2 Kinase Assays (LanthaScreen), JAK1; conditions: 25 μM ATP (Km); pIC50 converted to pKi by Cheng-Prusoff
Sequence of JAK1 (P23458 whole entry): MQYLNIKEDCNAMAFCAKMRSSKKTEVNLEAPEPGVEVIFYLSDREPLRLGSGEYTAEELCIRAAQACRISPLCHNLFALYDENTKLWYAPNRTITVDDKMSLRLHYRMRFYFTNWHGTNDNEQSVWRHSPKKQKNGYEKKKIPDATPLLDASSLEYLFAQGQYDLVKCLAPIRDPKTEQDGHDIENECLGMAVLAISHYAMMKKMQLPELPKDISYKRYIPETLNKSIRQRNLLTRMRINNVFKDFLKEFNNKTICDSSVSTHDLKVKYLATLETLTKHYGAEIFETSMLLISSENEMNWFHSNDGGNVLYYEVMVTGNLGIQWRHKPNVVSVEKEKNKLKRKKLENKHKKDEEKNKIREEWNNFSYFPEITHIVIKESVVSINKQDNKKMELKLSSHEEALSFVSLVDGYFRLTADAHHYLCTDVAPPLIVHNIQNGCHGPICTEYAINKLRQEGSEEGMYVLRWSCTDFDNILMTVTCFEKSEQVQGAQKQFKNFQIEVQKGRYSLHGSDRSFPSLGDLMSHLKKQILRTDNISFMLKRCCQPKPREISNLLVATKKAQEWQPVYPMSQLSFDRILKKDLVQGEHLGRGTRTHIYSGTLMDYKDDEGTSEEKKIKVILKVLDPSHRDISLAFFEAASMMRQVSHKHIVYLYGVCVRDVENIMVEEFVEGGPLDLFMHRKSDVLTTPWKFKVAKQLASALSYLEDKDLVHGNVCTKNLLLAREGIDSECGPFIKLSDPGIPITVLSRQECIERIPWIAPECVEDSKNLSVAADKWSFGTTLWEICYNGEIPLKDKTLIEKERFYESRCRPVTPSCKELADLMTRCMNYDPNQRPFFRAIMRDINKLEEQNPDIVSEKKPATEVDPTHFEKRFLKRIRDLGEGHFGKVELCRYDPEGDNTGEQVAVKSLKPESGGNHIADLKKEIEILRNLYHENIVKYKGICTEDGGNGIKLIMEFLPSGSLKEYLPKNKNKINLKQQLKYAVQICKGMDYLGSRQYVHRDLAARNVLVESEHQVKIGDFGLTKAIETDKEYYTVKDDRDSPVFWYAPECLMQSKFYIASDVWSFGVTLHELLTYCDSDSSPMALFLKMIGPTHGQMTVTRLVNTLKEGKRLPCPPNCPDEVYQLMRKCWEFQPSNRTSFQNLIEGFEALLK

[7] = biological target: JAK2 (Homo sapiens (Human), UniProt O60674); assay: Biochemical JAK and Tyk2 Kinase Assays (LanthaScreen), JAK2; conditions: 3 μM ATP (Km); pIC50 converted to pKi by Cheng-Prusoff
Sequence of JAK2 (O60674 whole entry): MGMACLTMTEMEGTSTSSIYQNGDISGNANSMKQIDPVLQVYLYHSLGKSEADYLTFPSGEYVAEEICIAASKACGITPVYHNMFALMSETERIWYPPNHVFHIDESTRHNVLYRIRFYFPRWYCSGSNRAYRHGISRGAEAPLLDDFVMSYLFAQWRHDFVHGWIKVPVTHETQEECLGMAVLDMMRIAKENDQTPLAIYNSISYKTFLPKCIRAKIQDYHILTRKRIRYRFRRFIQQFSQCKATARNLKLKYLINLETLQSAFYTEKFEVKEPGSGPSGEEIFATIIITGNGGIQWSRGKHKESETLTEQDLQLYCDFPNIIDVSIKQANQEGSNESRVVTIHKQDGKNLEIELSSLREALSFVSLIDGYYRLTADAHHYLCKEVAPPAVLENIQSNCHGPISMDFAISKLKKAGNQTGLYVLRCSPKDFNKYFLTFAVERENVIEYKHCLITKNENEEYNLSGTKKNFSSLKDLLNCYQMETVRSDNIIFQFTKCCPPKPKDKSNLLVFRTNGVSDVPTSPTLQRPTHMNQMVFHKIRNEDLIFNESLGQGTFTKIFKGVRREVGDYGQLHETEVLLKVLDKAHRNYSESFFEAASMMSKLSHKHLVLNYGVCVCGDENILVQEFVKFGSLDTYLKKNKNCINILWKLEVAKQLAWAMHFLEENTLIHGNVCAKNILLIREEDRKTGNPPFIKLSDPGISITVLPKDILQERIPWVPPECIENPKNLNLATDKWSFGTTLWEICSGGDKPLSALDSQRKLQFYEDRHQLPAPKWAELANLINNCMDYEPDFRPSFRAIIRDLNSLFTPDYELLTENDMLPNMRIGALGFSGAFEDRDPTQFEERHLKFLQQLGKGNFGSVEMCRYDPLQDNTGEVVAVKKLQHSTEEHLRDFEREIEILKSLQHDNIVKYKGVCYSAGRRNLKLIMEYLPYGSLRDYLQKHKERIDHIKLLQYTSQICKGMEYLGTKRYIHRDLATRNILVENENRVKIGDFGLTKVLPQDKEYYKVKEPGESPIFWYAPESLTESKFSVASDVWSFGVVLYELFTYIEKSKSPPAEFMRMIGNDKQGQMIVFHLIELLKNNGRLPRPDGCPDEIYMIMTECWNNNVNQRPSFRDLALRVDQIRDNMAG
Protocol: as §1, §2, §3, §4

[8] = Aqueous Solubility Assay; conditions: PBS buffer pH 7.4; maximum upper limit 1,000 μM
Protocol: Assay 5: Aqueous Solubility Assay
The purpose of this assay was to quantify the solubility of test compounds in pH 4 and pH 7.4 PBS buffers. The assay required 40 μL of 10 mM DMSO test compound solution per desired buffer in addition to 20 μL required to make a test standard. For example, to test a compound in both buffers, 100 μL (2*40 μL+20 μL) of 10 mM DMSO compound stock solution was required.
The standard was created by diluting 20 μL of 10 mM DMSO compound stock solution into 180 μL of methanol and was shaken for five minutes to ensure solution uniformity. […] This 1,000 μM solution was run on an Agilent 1260 LC-MS system by injecting 2 μL in order to obtain the peak area. For the test solutions, 40 μL of 10 mM DMSO compound stock solution, per PBS buffer condition, were dried down into a powder overnight. Once in powder form, 400 μL of the desired PBS buffer was added to the powder and allowed to shake vigorously for four hours. The maximum theoretical concentration for this sample solution was 1,000 μM. After four hours of shaking, the samples were centrifuged for 10 minutes at 3,000 RPM before injecting 2 μL on the same Agilent 1260 LC-MS system to obtain the peak area.
In Table 6 below, A represents a value above 500, B represents a value between 250 and 500, C represents a value between 50 and 250, D represents a value between 10 and 50, and E represents a value below 10.

[9] = Solubility Assay in Organic Excipients; conditions: maximum upper limit 20,000 μM
Protocol: Assay 6: Solubility Assay in Organic Excipients
The purpose of this assay was to quantify the solubility of test compounds in different organic excipients such as diisopropyl adipate, medium chain triglycerides (MCT), propylene glycol, and polyethylene glycol. The assay required 80 μL of 100 mM DMSO test compound solution per desired excipient in addition to 40 μL required to make a test standard.
The standard was created by diluting 40 μL of 100 mM DMSO compound stock solution into 160 μL of methanol and was shaken for five minutes to ensure solution uniformity. […] This 20,000 μM solution was run on an Agilent 1260 LC-MS system by injecting 0.2 μL in order to obtain the peak area. For the test solutions, 80 μL of 100 mM DMSO compound stock solution, per excipient, were dried down into a powder overnight. Once in powder form, 400 μL of the desired excipient was added to the powder and allowed to shake vigorously for four hours. The maximum theoretical concentration for this sample solution was 20,000 μM. After four hours of shaking, the samples were centrifuged for 10 minutes at 3,000 RPM before injecting 0.2 μL on the same Agilent 1260 LC-MS system to obtain the peak area.

Sequence of JAK3 (P52333 whole entry): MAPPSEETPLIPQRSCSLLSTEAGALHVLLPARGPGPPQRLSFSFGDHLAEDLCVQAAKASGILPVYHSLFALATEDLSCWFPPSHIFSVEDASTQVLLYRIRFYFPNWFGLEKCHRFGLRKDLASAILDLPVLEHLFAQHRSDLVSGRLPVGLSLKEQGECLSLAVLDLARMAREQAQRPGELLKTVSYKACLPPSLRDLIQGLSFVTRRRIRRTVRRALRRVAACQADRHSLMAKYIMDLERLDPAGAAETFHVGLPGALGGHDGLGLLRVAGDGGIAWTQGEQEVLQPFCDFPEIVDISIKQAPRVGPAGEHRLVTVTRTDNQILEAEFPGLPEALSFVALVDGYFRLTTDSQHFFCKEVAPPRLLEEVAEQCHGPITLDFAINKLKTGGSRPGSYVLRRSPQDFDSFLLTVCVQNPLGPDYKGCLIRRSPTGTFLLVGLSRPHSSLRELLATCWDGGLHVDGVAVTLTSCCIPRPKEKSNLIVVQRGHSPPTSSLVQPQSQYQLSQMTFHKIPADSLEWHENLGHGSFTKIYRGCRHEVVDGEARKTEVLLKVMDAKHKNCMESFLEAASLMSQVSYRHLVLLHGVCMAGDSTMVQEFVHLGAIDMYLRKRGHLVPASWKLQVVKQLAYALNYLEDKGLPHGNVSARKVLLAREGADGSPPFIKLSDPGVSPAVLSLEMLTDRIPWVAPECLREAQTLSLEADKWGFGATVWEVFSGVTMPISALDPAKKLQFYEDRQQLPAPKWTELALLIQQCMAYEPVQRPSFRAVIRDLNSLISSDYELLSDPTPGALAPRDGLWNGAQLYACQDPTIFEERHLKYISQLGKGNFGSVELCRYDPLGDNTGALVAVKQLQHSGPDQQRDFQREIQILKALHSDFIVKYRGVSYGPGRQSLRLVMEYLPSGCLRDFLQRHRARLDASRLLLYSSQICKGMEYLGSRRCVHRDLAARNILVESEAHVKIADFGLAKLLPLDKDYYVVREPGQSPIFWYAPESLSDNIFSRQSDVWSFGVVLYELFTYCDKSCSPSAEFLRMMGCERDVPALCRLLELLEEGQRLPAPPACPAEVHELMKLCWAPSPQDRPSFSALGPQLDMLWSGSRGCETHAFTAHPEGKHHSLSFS

| SMILES | JAK 3 (pKi) [1] | HLM Clin μL/min/mg [2] | Tyk 2 (pKi) [3] | Cacoverap Kp 10^−6 cm/sec [4] | Caco Kp 10^−6 cm/sec [4] | Tall-1 IL2 pSTAT5 (pIC50) [5] | JAK 1 (pKi) [6] | JAK 2 (pKi) [7] | Solubility at PH 7.4 (μmol) [8] | Solubility in PEG400 (mg/mL) ([9]; PEG400) | Solubility in Diisopropyl adipate (mg/mL) ([9]; diisopropyl adipate) | Solubility in MCT (mg/mL) ([9]; medium chain triglycerides (MCT)) | Solubility in Propylene glycol (mg/mL) ([9]; propylene glycol) |
| --- | --- | --- | --- | --- | --- | --- | --- | --- | --- | --- | --- | --- | --- |
| CCS(=O)(=O)N1[C@@H]2CCC[C@H]1C[C@H](N(C)c1nc(Nc3cc(C)[nH]n3)cc([C@H]3CCCO3)n1)C2 [Compound 9] | B (B represents a pKi value between 9 and 10 (Ki between 1 nM and 0.1 nM)) | A (A represents a Clint value between 1250 and 3000) | A (A represents a pKi value ≥10 (Ki≤0.1 nM)) | A (A represents a value above 35×10^−6 cm/sec) | A (A represents a value above 30×10^−6 cm/sec) | A (A represents a pIC50 value ≥8.0) | A (A represents a pKi value ≥10 (Ki≤0.1 nM)) | A (A represents a pKi value ≥10 (Ki≤0.1 nM)) | C (C represents a value between 50 and 250) |  |  |  |  |
| CCS(=O)(=O)N1[C@@H]2CCC[C@H]1C[C@H](N(C)c1nc(Nc3cc(C)[nH]n3)cc(C3CCOC3)n1)C2 (stereo partly drawn) [Compound 5, N^2-((1R,3s,5S)-9-(ethylsulfonyl)-9-azabicyclo[3.3.1]nonan-3-yl)-N2-methyl-N4-(5-methyl-1H-pyrazol-3-yl)-6-(tetrahydrofuran-3-yl)pyrimidine-2,4-diamine] | B (B represents a pKi value between 9 and 10 (Ki between 1 nM and 0.1 nM)) | A (A represents a Clint value between 1250 and 3000) |  | A (A represents a value above 35×10^−6 cm/sec) | A (A represents a value above 30×10^−6 cm/sec) | A (A represents a pIC50 value ≥8.0) | A (A represents a pKi value ≥10 (Ki≤0.1 nM)) |  | E (E represents a value below 10) | A (A represents a value above 10) | B (B represents a value between 5 and 10) | C (C represents a value below 5) | A (A represents a value above 10) |
| CCS(=O)(=O)N1[C@@H]2CCC[C@H]1C[C@H](N(C)c1nc(Nc3cc(C)[nH]n3)cc([C@@H]3CCCO3)n1)C2 [Compound 10] | B (B represents a pKi value between 9 and 10 (Ki between 1 nM and 0.1 nM)) | A (A represents a Clint value between 1250 and 3000) | A (A represents a pKi value ≥10 (Ki≤0.1 nM)) | A (A represents a value above 35×10^−6 cm/sec) | A (A represents a value above 30×10^−6 cm/sec) | A (A represents a pIC50 value ≥8.0) | A (A represents a pKi value ≥10 (Ki≤0.1 nM)) | A (A represents a pKi value ≥10 (Ki≤0.1 nM)) | C (C represents a value between 50 and 250) |  |  |  |  |
